The text below walks through data of US6740662B1, “Naphthyridine derivatives” (Yamanouchi Pharmaceutical Co., Ltd., priority 1999, dated 2004).

Series [1] has as its system P450 drug metabolizing enzyme present in the liver microsome. The experiment in a line: In vitro drug metabolism test using liver microsome. Format: in vitro ADME. The following applies: human and rat liver microsome, test compound 20 ng/ml, 37° C., 10, 20 and 30 minutes, residual ratio. As for the experimental part:
1) Human and rat liver microsome suspension (human microsome: Xenotech, rat microsome: Charles River) was diluted with 100 mM Na-K phosphate buffer (pH 7.4) to a protein concentration of 0.5 mg/ml. To a 100 μl portion of this suspension were added 2 μl of a test compound solution (a 10 μg/ml acetonitrile solution), 500 μl of 200 mM Na-K phosphate buffer (pH 7.4), 50 μl of 1 mM EDTA-NaOH (pH 7.4) and 200 μl of purified water, thereby preparing a substrate solution (concentration in the reaction solution: liver microsome (as the protein content) 0.05 mg/ml, test compound 20 ng/ml, 100 mM Na-K phosphate buffer, 0.1 mM EDTA-NaOH).
2) An NADPH production system was prepared by mixing 42 mg of NADP, 5 ml of 100 mM […] (G6P) and 5 ml of 100 mM MgCl2, and adding 57 μl of G6P dehydrogenase (about 1750 U/5 mg/ml) to the mixture. This was heated at 37° C. for 5 minutes and then ice-cooled until its use.
3) A 900 μl portion of the substrate solution was pre-incubated at 37° C. for 5 minutes, and then 100 μl of the NADPH production system was added thereto, following by reaction at 37° C. for 10, 20 and 30 minutes. After termination of the reaction by adding 2 ml of ethyl acetate, the whole was ice-cooled. In this connection, a control sample was prepared by adding 100 μl of the NADPH production system after adding 2 ml of ethyl acetate (0 minute reaction).
4) To the reaction solution was added 100 μl of an internal standard substance having a predetermined concentration (an acetonitrile solution), 1 ml of 0.5 M phosphoric acid and 2 ml of ethyl acetate, followed by shaking for 10 minutes. After 10 minutes of centrifugation at 2,500 rpm, the ethyl acetate layer was separated and evaporated to dryness, and the residue was dissolved in 100 μl of an HPLC mobile phase solvent. The test compound was eluted after about 12 minutes, and the internal standard substance after about 16 minutes, under the following conditions. (HPLC measuring conditions mobile phase: acetonitrile/20 mM ammonium acetate=2:3 (v/v), column: Discovery RP Amide C16, 4.6×35 mm (SUPELCO), flow rate: 0.8 ml/min., detection: UV 286 nm)
5) A ratio (residual ratio) of the peak height ratio after 10, 20 or 30 minutes of the reaction to the peak height ratio of each test compound in the control (peak height ratio to the internal standard substance) was calculated.
On the technique in general: Liver microsomes are vesicles of endoplasmic reticulum, rich in cytochrome P450 enzymes.

Series [2] can be described thus: Oral absorbability and pharmacokinetic profile evaluation test using type IV PDE inhibitory activity as the index. It counts as in vivo. The following applies: orally administered to male Fisher rat at 3 mg/kg; plasma type IV PDE inhibitory activity as index; in comparison with a comparative compound. As for the experimental part: Test Example 3. Oral absorbability and pharmacokinetic profile evaluation test using type IV PDE inhibitory activity as the index
The following assay was carried out in order to evaluate oral absorbability and pharmacokinetic profiles of the type IV PDE-inhibiting compounds of the invention.
1) Each test compound suspended in purified water containing 0.5% methyl cellulose was orally administered to a seven-week-old male Fisher rat at a dose of 3 mg/kg. In the control group, a solvent (0.5% methyl cellulose in purified water, 3 ml/kg) was administered in the same manner. After the oral administration, blood samples were periodically collected in the presence of heparin from the caudal vein of each rat under ether anesthesia, and plasma was prepared in the usual way.
2) The plasma prepared from each rat administered with the test compound or solvent was added to the type IV PDE measuring system shown in the above Test Example 1 so as to be a final concentration of 0.1%, and the type IV PDE inhibitory activity was measured.

As usually defined, the melting point is the temperature, or range, at which the solid turns liquid. Take `CCn1c(=O)c(CCC(=O)O)c(C2CCCCC2)c2ccc(C)nc21` [Example 47, 3-(4-cyclohexyl-1-ethyl-7-methyl-2-oxo-1,2-dihydro-1,8-naphthyridin-3-yl)propanoic acid]: the melting point was 155 to 156 °C. Besides, in series [1], the “metabolism by the P450 drug metabolizing enzyme present in the liver microsome” value (from here on “metabolism”) is “hardly metabolized”. Besides, the “oral absorbability and metabolic stability” value in series [2] is “good oral absorbability and metabolic stability”.

`CCn1c(=O)c(CCC(=O)O)c(-c2cccc(C)c2)c2ccc(C)nc21` [Example 77, 3-[1-ethyl-7-methyl-4-(3-methylphenyl)-2-oxo-1,2-dihydro-1,8-naphthyridin-3-yl]propanoic acid] showed a melting point of 174 to 175 °C. In addition, in series [1], the “metabolism” value was “hardly metabolized”. In addition, the “oral absorbability and metabolic stability” value in series [2] is “good oral absorbability and metabolic stability”.

`CCn1c(=O)c(CCc2nnn[nH]2)c(C2CCCCC2)c2ccc(C)nc21` [Example 79] yielded a melting point of 207 to 209 °C. Besides, the “metabolism” value in series [1] was “hardly metabolized”. Besides, in series [2], the “oral absorbability and metabolic stability” value was “good oral absorbability and metabolic stability”.
